Five molecules from US8309788B2, “Protease inhibitors in absorbent articles” (The Procter and Gamble Company, priority 1999, dated 2012) can be followed below.

One experiment relates to purified chymotrypsin. The experiment is described as follows: Purified Protease Method: purified chymotrypsin. The format is biochemical. The note with it: pH 7.6, 25° C., read-out: IC50 Values, Purified Proteases, Chymotrypsin. As for the experimental part:
Standard in vitro assays for enzyme activity and inhibition of enzyme activity are well known. The reagents used to conduct these tests are generally commercially available. In general, a simple system comprises an enzyme-specific substrate which, when hydrolyzed by the enzyme, produces a colored product. The activity of the enzyme is measured spectrophotometrically as the degree of development of the colored product (i.e. the rate of color change) over a predetermined time period.
For the Purified Protease assay and the Fecal Protease assays described below, the IC50 for each inhibitor tested is calculated according to the following equation: IC50=[I]/[(v/vi)−1] where: [I] is the inhibitor concentration tested, v is the rate of substrate cleavage in the absence of inhibitor and vi is the rate of substrate cleavage in the presence of inhibitor.
The following Purified Protease and Fecal Protease Methods are utilized to determine the inhibitory activity of putative protease inhibitors against a) purified proteases known to exist in feces; and b) the protease activity of feces itself; respectively. […] In the Methods, v and vi are measured as the change in absorbance (optical density, OD) at a given wavelength/time (e.g., minutes).
To test the efficacy of protease inhibitors against purified chymotrypsin, 0.05 mL of a putative inhibitor and 0.125 mL of 16 nM chymotrypsin (e.g., Sigma, St. Louis, Mo., catalogue no. C8946) in chymotrypsin buffer (50 mM TRIS, 10 mM CaCl2, pH 7.6) are added to a microcuvette. […] To this mixture, 0.025 mL of substrate (0.6 mM N-Succ-Ala-Ala-Pro-Phe-p-nitroanilide, e.g., Sigma cat. no. S7388) in chymotrypsin buffer is added to the cuvette, mixed, and the absorbance at 405 nm measured over 10 minutes at 25° C. The rate of substrate cleavage in the presence of inhibitor (vi) is the slope of a plot relating the absorbance at 405 nm versus time. […] The rate of substrate cleavage in the absence of inhibitor (v) is the slope of a plot relating the absorbance at 405 nm versus time. […]

For experiment [1], the system named is IL-1α production by cultured keratinocytes in the presence of feces. Briefly: In Vitro Skin Test for Inhibition of IL-1α Production. The format is cell-based, human. The text has this: In an in vitro method to determine the efficacy of protease inhibitors in preventing the proinflammatory response of the skin to feces and fecal enzymes, human keratinocytes are obtained from epidermal tissue and cultured in serum free medium in plastic culture vessels containing a nylon mesh surface for a period of time until they are confluent. The mesh surface is then raised to the liquid air interface in order to promote differentiation and formation of multilayered organized layers analogous to those found in vivo, including a well defined stratum corneum barrier layer. Any cell culture system that promotes the growth and differentiation of keratinocytes, as described, may be employed. A commercially available cell culture system suitable for use in the invention is Epiderm (MatTek Corporation, Ashland, Mass.). Infant feces are collected in a manner to keep them free of urine contamination and diluted with phosphate-buffered saline (PBS) (pH 7.2-7.4.) The mixture is then mixed thoroughly to obtain a homogeneous suspension by homogenization or sonication. To assay for IL-1α production due to fecal enzyme activity, an aliquot of the homogenate is diluted with PBS and added to the surface of a control culture in a culture vessel. To assay for inhibition of IL-1α production due to protease activity, a predetermined quantity of a putative protease inhibitor is added to an otherwise identical diluted aliquot of the homogenate prior to adding it to the surface of a test culture. The cultures are allowed to incubate in a controlled atmosphere. At selected times, the control cultures and inhibitor-treated test cultures, and the underlying culture media are harvested. The culture media are assayed for the presence of IL-1α by known methods. For example, a suitable assay for IL-1α is an enzyme-linked immunoabsorbent method commercially available as Quantikine from R&D Systems, Minneapolis, Minn. The percent reduction in IL-1α production due to the presence of the protease inhibitor is calculated as follows: [formula] […]

Where a SMILES comes first, the peptide text is derived from it. [ ]: non-standard residue; d: D form. The star is where a group is joined. Sta = CC(C)C[C@H](N)[C@@H](O)CC(=O)O; Isovaleryl = CC(C)CC(=O)*

As to `CC(C)C[C@H](NC(=O)[C@@H](NC(=O)N[C@@H](Cc1ccccc1)C(=O)O)[C@@H]1CCN=C(N)N1)C(=O)N[C@H](C=O)Cc1ccccc1` [Chymostatin], in the experiment on purified chymotrypsin, the IC50 (usually the concentration at which inhibition is half-maximal) was below 120 nM. Turning to `N=C(N)c1ccc(OCCCCCCOc2ccc(C(=N)N)cc2)cc1` [Hexamidine diisethionate, hexamidine diisethionate], the results for the “reduction of IL-1α production from skin cultures treated with feces” value in experiment [1] (inhibitor concentration 100 μM) and in experiment [1] (inhibitor concentration 1000 μM) were 5% and 51-88%, respectively. As for `CC(C)CC(=O)N[C@H](C(=O)N[C@H](C(=O)N[C@@H](CC(C)C)[C@@H](O)CC(=O)N[C@@H](C)C(=O)N[C@@H](CC(C)C)[C@@H](O)CC(=O)O)C(C)C)C(C)C` [Pepstatin A] (Isovaleryl-VV[Sta]A[Sta]-OH), the IC50 in the experiment on purified chymotrypsin is 4900 nM.

For the molecule Aprotinin, the IC50 in the experiment with purified chymotrypsin is 1000 nM.

B1: Soybean trypsin inhibitor: plant-derived trypsin inhibitor; serine protease inhibitor (protein, UniProt P01070 25-205, looked up)
Trypsin inhibitor A: DFVLDNEGNPLENGGTYYILSDITAFGGIRAAPTGNERCPLTVVQSRNELDKGIGTIISSPYRIRFIAEGHPLSLKFDSFAVIMLCVGIPTEWSVVEDLPEGPAVKIGENKDAMDGWFRLERVSDDEFNNYKLVFCPQQAEDDKCGDIGISIDHDDGTRRLVVSKNKPLVVQFQKLDKESL
For B1, the “reduction of IL-1α production from skin cultures treated with feces” value in experiment [1] (inhibitor concentration 10 μM) is recorded as 56-75%.
